The record followed here is patent US10640452B2, “Branched trialkyl quaternary ammonium compounds” (Eastman Chemical Company, priority 2018, dated 2020).

The subject of one data set is Candida albicans. As to the kind of experiment: Antimicrobial screening, microplate dilution assay (MIC) and agar spotting (MLC). Format: cell-based. The settings on record: Candida albicans (yeast); for MIC < 10%: lowest concentration with growth less than 10% of control; for MIC < 10% / MIC < 50%: approx. 24 h, 32° C.; for MIC < 50%: lowest concentration with growth less than 50% of control; for MLC: minimum lethal concentration, absence of growth on agar. How it is done:
(§1) The minimum inhibitory concentration (MIC) and the minimum lethal concentration (MLC) of the chemicals were determined using a microplate dilution assay. Quats were provided as aqueous solutions, while Triclosan and Chloroxylenol were provide as powders which were first dissolved at 5 weight percent in absolute ethanol. A two-fold serial dilution series of each test chemical was prepared in Trypticase Soy Broth at 20% of the standard concentration (TSB20) and in Sabouraud Dextrose Broth at 20% of the standard concentration (SDB20) in 96-well micro-titer plates. A total of 10 dilutions were prepared and four replicate tests were performed for each dilution. […] Control solutions containing only media were included for each plate. Suspensions of Staphylococcus aureus, Escherichia coli, and Candida albicans were prepared from one-day old agar plate cultures in Butterfields Phosphate Diluent to a concentration of approximately 10^7 to 10^8 cells per milliliter. Each test well was inoculated with the diluted culture suspensions at a concentration of 10^3 to 10^4 cells per well and then incubated at 32° C. with shaking at 150 rpm for approximately 24 hours, after which the optical density of each well was determined spectrophotometrically at 600 nm. Wells containing uninoculated media without test chemical were included in each plate as negative controls and, following inoculation, as positive controls.
(§2) Selected wells at or below the MIC were tested for MLC by spotting three microliters from each replicate well onto Trypticase Soy agar for S. aureus and E. coli, or Sabouraud Dextrose agar for C. albicans.

The subject of another data set is Escherichia coli. The description is as above. The settings on record: Escherichia coli (Gram neg bacteria); for MIC < 10%: lowest concentration with growth less than 10% of control; for MIC < 10% / MIC < 50%: approx. 24 h, 32° C.; for MIC < 50%: lowest concentration with growth less than 50% of control; for MLC: minimum lethal concentration, absence of growth on agar. Format: cell-based. How it is done:
as §1, §2

A further data set deals with Staphylococcus aureus. The data set is described as above. Format: cell-based. The settings on record: Staphylococcus aureus (Gram pos bacteria); for MIC < 10%: lowest concentration with growth less than 10% of control; for MIC < 10% / MIC < 50%: approx. 24 h, 32° C.; for MIC < 50%: lowest concentration with growth less than 50% of control; for MLC: minimum lethal concentration, absence of growth on agar. Here is the method: as §1, §2

Data set [1] in a line: Ready Biodegradability - CO2 Evolution Test OECD 301B. Here is the method: The biodegradability of the branched aldehyde intermediates of Example 2 (4-ethyl-2-methyloctanal) and Example 25 (2,4-diethyl-2-octenal) were determined by the Ready Biodegradability—CO2 Evolution Test—Degradation of test compound according to OECD Guidelines for Testing of Chemicals CO2 Evolution Test 301B.

A value given as a limit tells only on which side of the number the result lay.

Take `CCCCCCCCCCCC[N+](C)(C)Cc1ccccc1.[Cl-]` [BAC-12 linear, benzalkonium chloride, C12]: the “MIC < 10%” value is 0.0016 Weight percent in the data set with Candida albicans, 0.00078 Weight percent in the data set on Escherichia coli and 0.0002 Weight percent with Staphylococcus aureus. Moreover, the “MIC < 50%” value is recorded as 0.00078 Weight percent with Candida albicans, 0.00078 Weight percent with Escherichia coli and 0.0002 Weight percent in the data set on Staphylococcus aureus. Besides, the MLC is reported as 0.0016 Weight percent in the data set with Candida albicans, 0.00078 Weight percent in the data set on Escherichia coli and 0.0002 Weight percent in the data set with Staphylococcus aureus.

Take `CCCCC(CC)CC(C)C=O` (stereo not drawn) [Example 2, 4-ethyl-2-methyloctanal]: the “Biodegradation (%)” value in data set [1] (day 0) was determined as 0%; in data set [1] (day 2) it was 0%; in data set [1] (day 6), 15%; in data set [1] (day 7) it was 21%; in data set [1] (day 9), 31%; in data set [1] (day 14), 47%. Further, the “Biodegradation (%)” value in data set [1] (day 19) amounted to 54%; in data set [1] (day 23) it was 56%; in data set [1] (day 28), 57%; in data set [1] (day 29 (first line)) it was 57%; in data set [1] (day 29 (second line)) it was 61%.

Turning to `CCCCC(CC)CC(C=O)CC` (stereo not drawn) [Example 25, 2,4-diethyloctanal], the “Biodegradation (%)” value in data set [1] (day 0) stood at 0%; in data set [1] (day 2), 0%; in data set [1] (day 6), 0%; in data set [1] (day 7), 9%; in data set [1] (day 9), 27%; in data set [1] (day 14), 48%. In addition, the “Biodegradation (%)” value is 53% in data set [1] (day 19); 53% in data set [1] (day 23); 55% in data set [1] (day 28); 55% in data set [1] (day 29 (first line)); 57% in data set [1] (day 29 (second line)).

`Oc1cc(Cl)ccc1Oc1ccc(Cl)cc1Cl` [Triclosan]: in the data set on Candida albicans, the “MIC < 10%” value is given as 0.0016 Weight percent, the “MIC < 50%” value worked out at 0.0016 Weight percent and the MLC is recorded as above 0.0016 Weight percent. Besides, in the data set with Escherichia coli, the “MIC < 10%” value is reported as 0.00010 Weight percent, the “MIC < 50%” value turned out to be 0.00010 Weight percent and the MLC came out at 0.00010 Weight percent. Further, in the data set on Staphylococcus aureus, the “MIC < 10%” value was found to be 0.00002 Weight percent, the “MIC < 50%” value is 0.00002 Weight percent and the MLC is given as 0.00003 Weight percent.

As to `CC(=O)[O-].[Na+]` [sodium acetate], the “Biodegradation (%)” value in data set [1] (day 0) amounted to 0%; in data set [1] (day 2) it was 32%; in data set [1] (day 6), 52%; in data set [1] (day 7) it was 54%; in data set [1] (day 9) it was 60%; in data set [1] (day 14), 66%. For the same compound, the “Biodegradation (%)” value in data set [1] (day 19) was 69%; in data set [1] (day 23), 71%; in data set [1] (day 28) it was 72%; in data set [1] (day 29 (first line)), 74%; in data set [1] (day 29 (second line)), 78%.
